Counter-ions that a name gives are not always drawn.
Columns and labels:
Assay in all cases: In vitro antibacterial activity, two-fold agar-plate dilution method (MIC)
Type in all cases: cell-based
[1] = test system: E. coli 31; details: Escherichia coli, heart infusion agar, 10^6 viable cells per ml, 37°C for 20 hours
Experimental: (§1) In vitro antibacterial activity was determined by the two-fold agar-plate dilution method as described below. One loopful of an overnight culture of each test strain in Trypticase-soy broth (10^6 viable cells per ml) was streaked on heart infusion agar (HI-agar) containing graded concentrations of representative test compound, and the minimal inhibitory concentration (MIC) was expressed in terms of µg/ml after incubation at 37°C for 20 hours.

[2] = test system: P. aeruginosa 2; details: Pseudomonas aeruginosa, heart infusion agar, 10^6 viable cells per ml, 37°C for 20 hours
Experimental: as §1

[3] = test system: S. aureus 2538; details: Staphylococcus aureus, heart infusion agar, 10^6 viable cells per ml, 37°C for 20 hours
Experimental: as §1

CCO/N=C(\C(=O)N[C@@H]1C(=O)N2C(C(=O)[O-])=C(C[n+]3ccc(N)n3CCO)CS[C@H]12)c1nsc(N)n1 [7β-[2-(5-Amino-1,2,4-thiadiazol-3-yl)-2-ethoxyiminoacetamido]-3-[3-amino-2-(2-hydroxyethyl)-1-pyrazolio]methyl-3-cephem-4-carboxylate hydrochloride (syn isomer)]
MIC [1]: ≤ 0.025 µg/mL
MIC [2]: 0.39 µg/mL
MIC [3]: 3.13 µg/mL
